Results on 22 molecules are retold here after US20250026778A1 (TIUMBIO CO., LTD., priority 2021, published 2025).

Structures are written as SMILES.

T1 sequence (P17931 whole entry): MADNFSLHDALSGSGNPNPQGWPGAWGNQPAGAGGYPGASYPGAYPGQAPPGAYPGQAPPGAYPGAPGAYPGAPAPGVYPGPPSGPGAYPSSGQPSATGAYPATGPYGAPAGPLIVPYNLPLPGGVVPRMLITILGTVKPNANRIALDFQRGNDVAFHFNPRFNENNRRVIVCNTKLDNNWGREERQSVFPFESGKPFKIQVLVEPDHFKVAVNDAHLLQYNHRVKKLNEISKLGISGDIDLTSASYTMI

One assay addresses T1, his-galectin-3 (Homo sapiens, UniProt P17931).
T1 construct: purchased Abcam
The experiment in a line: TR-FRET assay (in vitro galectin-3 binding inhibitory activity test). As to conditions: Table 1; compound at 20 μM; 60 nM his-galectin-3, 15 nM biotin-ASF; read-out: % Inhibitory activity (at 20 μM). Put shortly:
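Compound is premixed with his-galectin-3 (60 nM final), then biotin-ASF (15 nM), Tb anti-His antibody (2 nM) and streptavidin-d2 (20 nM) are added. After at least 3.5 hours at RT in HEPES/NaCl buffer with Tween 20 and BSA, TR-FRET is read at 615/665 nm. DMSO serves as the uninhibited control, ASF omission as background.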
As for `OC[C@H]1O[C@@]2(CCCO2)[C@H](OCC(F)F)[C@@H](n2cc(-c3cc(F)c(F)c(F)c3)nn2)[C@H]1O` [Compound A27, (5S,7R,8R,9S,10R)-10-(2,2-difluoroethoxy)-7-(hydroxymethyl)-9-(4-(3,4,5-trifluorophenyl)-1H-1,2,3-triazol-1-yl)-1,6-dioxaspiro[4.5]decan-8-ol], the inhibition at 20 µM was 25 to 50%. Same read-out and setting: the result for `OC[C@H]1O[C@]2(OCC[C@H]2NCc2ccc(Cl)cc2)[C@H](O)[C@@H](n2cc(-c3cc(F)c(F)c(F)c3)nn2)[C@H]1O` [Compound A97, (4R,5S,7R,8R,9S,10R)-4-((4-chlorobenzyl)amino)-7-(hydroxymethyl)-9-(4-(3,4,5-trifluorophenyl)-1H-1,2,3-triazol-1-yl)-1,6-dioxaspiro[4.5]decane-8,10-diol] reads below 25%. Take `O=C(N[C@@H]1CCO[C@]12O[C@H](CO)[C@H](O)[C@H](n1cc(-c3cc(F)c(F)c(F)c3)nn1)[C@H]2O)c1cccc(C(F)(F)F)c1` [Compound A152]: the inhibition at 20 µM fell in the range of 50 to 75%. Turning to `O=C(N[C@@H]1CCO[C@]12O[C@H](CO)[C@H](O)[C@H](n1cc(-c3cc(F)c(F)c(F)c3)nn1)[C@H]2O)c1cccc(Br)c1` [Compound A150, 3-bromo-N-((4R,5S,7R,8R,9S,10R)-8,10-dihydroxy-7-(hydroxymethyl)-9-(4-(3,4,5-trifluorophenyl)-1H-1,2,3-triazol-1-yl)-1,6-dioxaspiro[4.5]decan-4-yl)benzamide], the inhibition at 20 µM was above 75%. In the case of `OC[C@H]1O[C@]2(OCC[C@H]2NCc2ccc(Cl)o2)[C@H](O)[C@@H](n2cc(-c3cc(F)c(F)c(F)c3)nn2)[C@H]1O` [Compound A128, (4R,5S,7R,8R,9S,10R)-4-(((5-chlorofuran-2-yl)methyl)amino)-7-(hydroxymethyl)-9-(4-(3,4,5-trifluorophenyl)-1H-1,2,3-triazol-1-yl)-1,6-dioxaspiro[4.5]decane-8,10-diol], the inhibition at 20 µM was 50 to 75%. `O=C(CO[C@@H]1[C@@H](n2cc(-c3cc(F)c(F)c(F)c3)nn2)[C@@H](O)[C@@H](CO)O[C@@]12CCCO2)N1CCC(O)CC1` [Compound A22, 2-(((5S,7R,8R,9S,10R)-8-hydroxy-7-(hydroxymethyl)-9-(4-(3,4,5-trifluorophenyl)-1H-1,2,3-triazol-1-yl)-1,6-dioxaspiro[4.5]decan-10-yl)oxy)-1-(4-hydroxypiperidin1-yl)ethanone]: the inhibition at 20 µM fell in the range of 25 to 50%. With `OC[C@H]1O[C@]2(OCC[C@H]2NCc2cccc(Br)c2)[C@H](O)[C@@H](n2cc(-c3cc(F)c(F)c(F)c3)nn2)[C@H]1O` [Compound A102, (4R,5S,7R,8R,9S,10R)-4-((3-bromobenzyl)amino)-7-(hydroxymethyl)-9-(4-(3,4,5-trifluorophenyl)-1H-1,2,3-triazol-1-yl)-1,6-dioxaspiro[4.5]decane-8,10-diol], the inhibition at 20 µM lay in the range of 25 to 50%. Turning to `OC[C@H]1O[C@@]2(CCCO2)[C@H](OCc2cccc(C(F)(F)F)c2)[C@@H](n2cc(-c3cc(F)c(F)c(F)c3)nn2)[C@H]1O` [Compound A90, (5S,7R,8R,9S,10R)-7-(hydroxymethyl)-10-((3-(trifluoromethyl)benzyl)oxy)-9-(4-(3,4,5-trifluorophenyl)-1H-1,2,3-triazol-1-yl)-1,6-dioxaspiro[4.5]decan-8-ol], the inhibition at 20 µM was below 25%. On to `COc1cccc(CC(=O)N2CCC[C@]3(C2)O[C@H](CO)[C@H](O)[C@H](n2cc(-c4cc(F)c(F)c(F)c4)nn2)[C@H]3O)c1` [Compound A140, 1-((2R,3R,4S,5R,6R)-3,5-dihydroxy-2-(hydroxymethyl)-4-(4-(3,4,5-trifluorophenyl)-1H-1,2,3-triazol-1-yl)-1-oxa-8-azaspiro[5.5]undecan-8-yl)-2-(3-methoxyphenyl)ethanone], for which the inhibition at 20 µM is below 25%. Regarding `O=C(O[C@@H]1[C@@H](n2cc(-c3cc(F)c(F)c(F)c3)nn2)[C@@H](O)[C@@H](CO)O[C@@]12CCCO2)c1ccc(F)cc1` [Compound A79, (5S,7R,8R,9S,10R)-8-hydroxy-7-(hydroxymethyl)-9-(4-(3,4,5-trifluorophenyl)-1H-1,2,3-triazol-1-yl)-1,6-dioxaspiro[4.5]decan-10-yl 4-fluorobenzoate], the inhibition at 20 µM is below 25%. `OC[C@H]1O[C@@]2(CCCCO2)[C@H](OCc2nn[nH]n2)[C@@H](n2cc(-c3cc(F)c(F)c(F)c3)nn2)[C@H]1O` [Compound A45, (2R,3R,4S,5R,6S)-5-((2H-tetrazol-5-yl)methoxy)-2-(hydroxymethyl)-4-(4-(3,4,5-trifluorophenyl)-1H-1,2,3-triazol-1-yl)-1,7-dioxaspiro[5.5]undecan-3-ol]: the inhibition at 20 µM lay within 50 to 75%. For the molecule `OC[C@H]1O[C@@]2(CCCO2)[C@H](OCc2ccccc2O)[C@@H](n2cc(-c3cc(F)c(F)c(F)c3)nn2)[C@H]1O` [Compound A37, (5S,7R,8R,9S,10R)-10-((2-hydroxybenzyl)oxy)-7-(hydroxymethyl)-9-(4-(3,4,5-trifluorophenyl)-1H-1,2,3-triazol-1-yl)-1,6-dioxaspiro[4.5]decan-8-ol], the inhibition at 20 µM was 25 to 50%.

Still in this assay, the particulars now being: Table 2; compound at 20 μM; 60 nM his-galectin-3, 15 nM biotin-ASF; read-out: % Inhibitory activity (at 20 μM).
For `O=C(N[C@@H]1CCO[C@]12O[C@H](CO)[C@H](O)[C@H](n1cc(-c3cc(F)c(F)c(F)c3)nn1)[C@H]2O)c1csc2cccc(Br)c12` [Compound A248, 4-bromo-N-((4R,5S,7R,8R,9S,10R)-8,10-dihydroxy-7-(hydroxymethyl)-9-(4-(3,4,5-trifluorophenyl)-1H-1,2,3-triazol-1-yl)-1,6-dioxaspiro[4.5]decan-4-yl)benzo[b]thiophene-3-carboxamide], the inhibition at 20 µM was below 25%. `O=C(N[C@@H]1CCO[C@]12O[C@H](CO)[C@H](O)[C@H](n1cc(-c3cc(F)c(F)c(F)c3)nn1)[C@H]2O)c1cccc2c(Cl)cccc12` [Compound A169, 5-chloro-N-((4R,5S,7R,8R,9S,10R)-8,10-dihydroxy-7-(hydroxymethyl)-9-(4-(3,4,5-trifluorophenyl)-1H-1,2,3-triazol-1-yl)-1,6-dioxaspiro[4.5]decan-4-yl)-1-naphthamide]: the inhibition at 20 µM was above 75%.

For `O=C(N[C@@H]1CCO[C@]12O[C@H](CO)[C@H](O)[C@H](n1cc(-c3cc(F)c(F)c(F)c3)nn1)[C@H]2O)c1cccc(-c2ccccc2Br)c1` [Compound A179, 2′-bromo-N-((4R,5S,7R,8R,9S,10R)-8,10-dihydroxy-7-(hydroxymethyl)-9-(4-(3,4,5-trifluorophenyl)-1H-1,2,3-triazol-1-yl)-1,6-dioxaspiro[4.5]decan-4-yl)-[1,1′-biphenyl]-3-carboxamide], the inhibition at 20 µM was 50 to 75%. With `OC[C@H]1O[C@@]2(CCCN(c3ccc(Cl)cc3)C2)[C@H](O)[C@@H](n2cc(-c3cc(F)c(F)c(F)c3)nn2)[C@H]1O` [Compound A224, (2R,3R,4S,5R,6R)-8-(4-chlorophenyl)-2-(hydroxymethyl)-4-(4-(3,4,5-trifluorophenyl)-1H-1,2,3-triazol-1-yl)-1-oxa-8-azaspiro[5.5]undecane-3,5-diol], the inhibition at 20 µM is below 25%.

For the molecule `O=C(N[C@@H]1CCO[C@]12O[C@H](CO)[C@H](O)[C@H](n1cc(-c3cc(F)c(F)c(F)c3)nn1)[C@H]2O)c1ccc2sccc2c1` [Compound A196, N-((4R,5S,7R,8R,9S,10R)-8,10-dihydroxy-7-(hydroxymethyl)-9-(4-(3,4,5-trifluorophenyl)-1H-1,2,3-triazol-1-yl)-1,6-dioxaspiro[4.5]decan-4-yl)benzo[b]thiophene-5-carboxamide], the inhibition at 20 µM was 50 to 75%.

With `CC1CO[C@@]2(C1)O[C@H](CO)[C@H](O)[C@H](n1cc(-c3cc(F)c(F)c(F)c3)nn1)[C@H]2OCC(=O)O` (single isomer, unassigned) [Compound A236], the inhibition at 20 µM lay in the range of 50 to 75%. Regarding `O=C(N[C@@H]1CCO[C@]12O[C@H](CO)[C@H](O)[C@H](n1cc(-c3cc(F)c(F)c(F)c3)nn1)[C@H]2O)c1cccc2c1CCCC2` [Compound A158, N-((4R,5S,7R,8R,9S,10R)-8,10-dihydroxy-7-(hydroxymethyl)-9-(4-(3,4,5-trifluorophenyl)-1H-1,2,3-triazol-1-yl)-1,6-dioxaspiro[4.5]decan-4-yl)-5,6,7,8-tetrahydronaphthalene-1-carboxamide], the inhibition at 20 µM fell in the range of 50 to 75%.

The same assay, now with this note: Table 3, found values; compound at 20 μM; 60 nM his-galectin-3, 15 nM biotin-ASF; read-out: % Inhibitory activity (at 20 μM).
As to `O=C(CO[C@@H]1[C@@H](n2cc(-c3cc(F)c(F)c(F)c3)nn2)[C@@H](O)[C@@H](CO)O[C@@]12CCCO2)N1CCC(O)CC1` [Compound A22, 2-(((5S,7R,8R,9S,10R)-8-hydroxy-7-(hydroxymethyl)-9-(4-(3,4,5-trifluorophenyl)-1H-1,2,3-triazol-1-yl)-1,6-dioxaspiro[4.5]decan-10-yl)oxy)-1-(4-hydroxypiperidin1-yl)ethanone], the inhibition at 20 µM turned out to be 28.1%. Still for that read-out and setting: for `OC[C@H]1O[C@@]2(CCCN(c3ccc(Cl)cc3)C2)[C@H](O)[C@@H](n2cc(-c3cc(F)c(F)c(F)c3)nn2)[C@H]1O` [Compound A224, (2R,3R,4S,5R,6R)-8-(4-chlorophenyl)-2-(hydroxymethyl)-4-(4-(3,4,5-trifluorophenyl)-1H-1,2,3-triazol-1-yl)-1-oxa-8-azaspiro[5.5]undecane-3,5-diol] the value was 24.2%.

The assay is the same for the next values; noted with them: read-out: % Inhibitory activity (at 20 μM), Table 1; compound at 20 μM; 60 nM his-galectin-3, 15 nM biotin-ASF.
Turning to `OC[C@H]1O[C@@]2(CCCN(Cc3ccccc3)C2)[C@H](O)[C@@H](n2cc(-c3cc(F)c(F)c(F)c3)nn2)[C@H]1O` [Compound A141, (2R,3R,4S,5R,6R)-8-benzyl-2-(hydroxymethyl)-4-(4-(3,4,5-trifluorophenyl)-1H-1,2,3-triazol-1-yl)-1-oxa-8-azaspiro[5.5]undecane-3,5-diol], the inhibition at 20 µM was below 25%. As to `O=C1CCCC2(N1)O[C@H](CO)[C@H](O)[C@H](n1cc(-c3cc(F)c(F)c(F)c3)nn1)[C@H]2O` (stereo partly drawn) [Compound A88, (2R,3R,4S,5R)-3,5-dihydroxy-2-(hydroxymethyl)-4-(4-(3,4,5-trifluorophenyl)-1H-1,2,3-triazol-1-yl)-1-oxa-7-azaspiro[5.5]undecan-8-one], the inhibition at 20 µM was below 25%.

The same assay, now with this note: read-out: % Inhibitory activity (at 20 μM), Table 2; compound at 20 μM; 60 nM his-galectin-3, 15 nM biotin-ASF.
With `OC[C@H]1O[C@]2(OCC[C@H]2n2cc(-c3cccc(Cl)c3)nn2)[C@H](O)[C@@H](n2cc(-c3cc(F)c(F)c(F)c3)nn2)[C@H]1O` [Compound A205, (4R,5S,7R,8R,9S,10R)-4-(4-(3-chlorophenyl)-1H-1,2,3-triazol-1-yl)-7-(hydroxymethyl)-9-(4-(3,4,5-trifluorophenyl)-1H-1,2,3-triazol-1-yl)-1,6-dioxaspiro[4.5]decane-8,10-diol], the inhibition at 20 µM was below 25%.
